Molecules are shown by their SMILES.

This assay concerns the target human PCSK9 (Homo sapiens, UniProt Q8NBP7). Briefly: PCSK9 ligand binding assay (TR-FRET): interference with binding of human PCSK9 to human LDLR. As to conditions: for IC50: Human PCSK9 Alexa Fluor 647 / Human LDLR extracellular domain-Europium Kryptate; for Max % inhibition: efficacy (Amax), 100% = 1 uM unlabeled human PCSK9, 0% = DMSO. In a few lines: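 Read-out was TR-FRET ratio (665 nm over 615 nm, 330 nm excitation) between Alexa Fluor 647-human PCSK9 (16 nM added) and Europium Kryptate-human LDLR ectodomain (4 nM added). Compound and PCSK9 were mixed 30 min before LDLR, then incubated 2 h. Inhibition was normalised to DMSO and unlabelled-PCSK9 controls, giving IC50 and Amax.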
(TR-FRET usually uses a lanthanide donor and a delayed reading to cut background.)

Sequence of human PCSK9 (Q8NBP7 153-692): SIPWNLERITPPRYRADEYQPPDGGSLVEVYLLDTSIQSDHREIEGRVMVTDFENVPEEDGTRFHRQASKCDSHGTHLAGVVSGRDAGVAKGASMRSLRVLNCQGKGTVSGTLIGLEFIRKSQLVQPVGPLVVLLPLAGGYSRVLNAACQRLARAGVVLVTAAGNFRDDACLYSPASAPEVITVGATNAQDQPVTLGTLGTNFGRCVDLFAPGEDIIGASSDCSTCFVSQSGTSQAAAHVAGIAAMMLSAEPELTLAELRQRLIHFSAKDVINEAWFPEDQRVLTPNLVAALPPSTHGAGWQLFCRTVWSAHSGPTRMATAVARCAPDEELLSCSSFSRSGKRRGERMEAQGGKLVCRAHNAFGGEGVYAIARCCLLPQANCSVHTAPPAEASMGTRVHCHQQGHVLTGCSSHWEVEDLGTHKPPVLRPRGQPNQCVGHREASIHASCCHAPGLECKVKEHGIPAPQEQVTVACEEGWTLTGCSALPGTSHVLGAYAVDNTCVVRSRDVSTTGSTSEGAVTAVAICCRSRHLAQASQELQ
Sequence of human PCSK9 (Q8NBP7 31-152 partner limits assumed): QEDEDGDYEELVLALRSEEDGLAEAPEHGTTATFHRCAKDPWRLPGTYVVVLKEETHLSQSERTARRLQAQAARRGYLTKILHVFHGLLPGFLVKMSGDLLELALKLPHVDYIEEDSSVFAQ

As usually defined, the IC50 is the midpoint of a concentration-inhibition curve. A higher IC50 goes with weaker potency. With `COC[C@@H]1NC(=O)[C@H](C)N(Cc2c(F)cc(Cl)cc2Oc2ccc(-c3cnc(CNC(C)(C)C)n3C)cc2)C(=O)C[C@@H](CC(F)(F)F)C(=O)N2CCC[C@@](Cc3ccc(Cl)cc3)(C2)NC1=O` [Compound 138, (3S, 7S, 10S, 13R)-6-(2-(4-(2-((tert-butylamino)methyl)-1-methyl-1H-imidazol-5-yl)phenoxy)-4-chloro-6-fluorobenzyl)-13-(4-chlorobenzyl)-10-(methoxymethyl)-7-methyl-3-(2,2,2-trifluoroethyl)-1,6,9,12-tetraazabicyclo[11.3.1]heptadecane-2,5,8,11-tetraone], the IC50 stood at 0.18 nM and the Max % inhibition was found to be 114.0%.

In the case of `C[C@H]1C(=O)N[C@@H](CO)C(=O)N[C@@]2(Cc3ccc(Cl)cc3)CCCN(C2)C(=O)[C@H](CC(F)(F)F)CC(=O)N1Cc1c(F)cc(Cl)cc1Oc1ccc(-c2cnc(CN(C)C3CCC3)n2C)cc1` [Compound 139, (3S, 7S, 10S, 13R)-6-(4-chloro-2-(4-(2-((cyclobutyl(methyl)amino)methyl)-1-methyl-1H-imidazol-5-yl)phenoxy)-6-fluorobenzyl)-13-(4-chlorobenzyl)-10-(hydroxymethyl)-7-methyl-3-(2,2,2-trifluoroethyl)-1,6,9,12-tetraazabicyclo[11.3.1]heptadecane-2,5,8,11-tetraone], the IC50 was 0.15 nM and the Max % inhibition turned out to be 113.0%.

In the case of `COC[C@@H]1NC(=O)[C@H](C)N(Cc2c(F)cc(Cl)cc2Oc2ccc(-c3cnc(CN(C)C)n3C)cc2)C(=O)C[C@@H](C2CCC2)C(=O)N2CCC[C@@](Cc3ccc(Cl)cc3)(C2)N(C)C1=O` [Compound 140, (3S, 7S, 10S, 13R)-6-(4-chloro-2-(4-(2-((dimethylamino)methyl)-1-methyl-1H-imidazol-5-yl)phenoxy)-6-fluorobenzyl)-13-(4-chlorobenzyl)-3-cyclobutyl-10-(methoxymethyl)-7,12-dimethyl-1,6,9,12-tetraazabicyclo[11.3.1]heptadecane-2,5,8,11-tetraone], the IC50 worked out at 1.45 nM and the Max % inhibition was 109.6%.

As to `COC[C@@H]1NC(=O)[C@H](C)N(Cc2c(F)cc(Cl)cc2Oc2ccc(-c3cnc(CN(C)C(C)(C)C)n3C)cc2)C(=O)C[C@@H](CC(F)(F)F)C(=O)N2CCC[C@@](Cc3ccc(Cl)cc3)(C2)N(C)C1=O` [Compound 141, (3S, 7S, 10S, 13R)-6-(2-(4-(2-((tert-butyl(methyl)amino)methyl)-1-methyl-1H-imidazol-5-yl)phenoxy)-4-chloro-6-fluorobenzyl)-13-(4-chlorobenzyl)-10-(methoxymethyl)-7,12-dimethyl-3-(2,2,2-trifluoroethyl)-1,6,9,12-tetraazabicyclo[11.3.1]heptadecane-2,5,8,11-tetraone], the IC50 stood at 1.78 nM and the Max % inhibition was 112.3%.

Consider `COC[C@@H]1NC(=O)[C@H](C)N(Cc2c(F)cc(Cl)cc2Oc2ccc(-c3cnc(CNC(C)(C)C)n3C)cc2)C(=O)C[C@@H](CC2CC2)C(=O)N2CCC[C@@](Cc3ccc(Cl)cc3)(C2)NC1=O` [Compound 142, (3R, 7S, 10S, 13R)-6-(2-(4-(2-((tert-butylamino)methyl)-1-methyl-1H-imidazol-5-yl)phenoxy)-4-chloro-6-fluorobenzyl)-13-(4-chlorobenzyl)-3-(cyclopropylmethyl)-10-(methoxymethyl)-7-methyl-1,6,9,12-tetraazabicyclo[11.3.1]heptadecane-2,5,8,11-tetraone], for which the IC50 amounted to 0.91 nM and the Max % inhibition amounted to 111.1%.

As to `C[C@H]1C(=O)N[C@@H](CO)C(=O)N[C@@]2(Cc3ccc(Cl)cc3)CCCN(C2)C(=O)[C@H](CC(F)(F)F)CC(=O)N1Cc1ccc(Cl)cc1Oc1ccc(-c2cnc(CN(C)C(C)(C)C)n2C)cc1` [Compound 143, (3S, 7S, 10S, 13R)-6-(2-(4-(2-((tert-butyl(methyl)amino)methyl)-1-methyl-1H-imidazol-5-yl)phenoxy)-4-chlorobenzyl)-13-(4-chlorobenzyl)-10-(hydroxymethyl)-7-methyl-3-(2,2,2-trifluoroethyl)-1,6,9,12-tetraazabicyclo[11.3.1]heptadecane-2,5,8,11-tetraone], the 50% inhibitory concentration (IC50) was 1.28 nM and the Max % inhibition is on record as 113.6%.

Regarding `C[C@H]1C(=O)N[C@@H](CO)C(=O)N[C@@]2(Cc3ccc(Cl)cc3)CCCN(C2)C(=O)[C@H](CC2(C)CC2)CC(=O)N1Cc1c(F)cc(Cl)cc1Oc1ccc(-c2cnc(CN(C)C)n2C)cc1` [Compound 144, (3R, 7S, 10S, 13R)-6-(4-chloro-2-(4-(2-((dimethylamino)methyl)-1-methyl-1H-imidazol-5-yl)phenoxy)-6-fluorobenzyl)-13-(4-chlorobenzyl)-10-(hydroxymethyl)-7-methyl-3-((1-methylcyclopropyl)methyl)-1,6,9,12-tetraazabicyclo[11.3.1]heptadecane-2,5,8,11-tetraone], the IC50 is 3.96 nM and the Max % inhibition stood at 113.1%.

Consider `C[C@H]1C(=O)N[C@@H](CO)C(=O)N[C@@]2(Cc3ccc(Cl)cc3)CCCN(C2)C(=O)[C@H](CC2CC2)CC(=O)N1Cc1c(F)cc(Cl)cc1Oc1ccc(-c2cnc(CN(C)C)n2C)cc1` [Compound 145, (3R, 7S, 10S, 13R)-6-(4-chloro-2-(4-(2-((dimethylamino)methyl)-1-methyl-1H-imidazol-5-yl)phenoxy)-6-fluorobenzyl)-13-(4-chlorobenzyl)-3-(cyclopropylmethyl)-10-(hydroxymethyl)-7-methyl-1,6,9,12-tetraazabicyclo[11.3.1]heptadecane-2,5,8,11-tetraone], for which the IC50 is 0.95 nM and the Max % inhibition is 112.3%.

In the case of `C[C@H]1C(=O)N[C@@H](CO)C(=O)N[C@@]2(Cc3ccc(Cl)cc3)CCCN(C2)C(=O)[C@H](CC(C)(F)F)CC(=O)N1Cc1c(F)cc(Cl)cc1Oc1ccc(-c2cnc(CN(C)C)n2C)cc1` [Compound 146, (3S, 7S, 10S, 13R)-6-(4-chloro-2-(4-(2-((dimethylamino)methyl)-1-methyl-1H-imidazol-5-yl)phenoxy)-6-fluorobenzyl)-13-(4-chlorobenzyl)-3-(2,2-difluoropropyl)-10-(hydroxymethyl)-7-methyl-1,6,9,12-tetraazabicyclo[11.3.1]heptadecane-2,5,8,11-tetraone], the IC50 is 0.57 nM and the Max % inhibition is given as 111.4%.

As for `C[C@H]1C(=O)N[C@@H](CO)C(=O)N[C@@]2(Cc3ccc(Cl)cc3)CCCN(C2)C(=O)[C@H](CC(F)(F)F)CC(=O)N1Cc1ccc(Cl)cc1Oc1ccc(-c2cnc(CNC(C)(C)C)n2C)cc1` [Compound 147, (3S, 7S, 10S, 13R)-6-(2-(4-(2-((tert-butylamino)methyl)-1-methyl-1H-imidazol-5-yl)phenoxy)-4-chlorobenzyl)-13-(4-chlorobenzyl)-10-(hydroxymethyl)-7-methyl-3-(2,2,2-trifluoroethyl)-1,6,9,12-tetraazabicyclo[11.3.1]heptadecane-2,5,8,11-tetraone], the half-inhibitory concentration (IC50) was determined as 0.72 nM and the Max % inhibition is listed as 110.6%.

Take `C[C@H]1C(=O)N[C@@H](CO)C(=O)N[C@@]2(Cc3ccc(Cl)cc3)CCCN(C2)C(=O)[C@H](CC2CC2)CC(=O)N1Cc1ccc(Cl)cc1Oc1ccc(-c2cnc(CNC(C)(C)C)n2C)cc1` [Compound 148, (3R, 7S, 10S, 13R)-6-(2-(4-(2-((tert-butylamino)methyl)-1-methyl-1H-imidazol-5-yl)phenoxy)-4-chlorobenzyl)-13-(4-chlorobenzyl)-3-(cyclopropylmethyl)-10-(hydroxymethyl)-7-methyl-1,6,9,12-tetraazabicyclo[11.3.1]heptadecane-2,5,8,11-tetraone]: the half-inhibitory concentration (IC50) was found to be 1.09 nM and the Max % inhibition stood at 111.9%.

As to `COC[C@@H]1NC(=O)[C@H](C)N(Cc2ccc(Cl)cc2Oc2ccc(-c3cnc(CNC(C)(C)C)n3C)cc2)C(=O)C[C@@H](Cc2ccccc2)C(=O)N2CCC[C@@](Cc3ccc(Cl)cc3)(C2)NC1=O` [Compound 149, (3R, 7S, 10S, 13R)-3-benzyl-6-(2-(4-(2-((tert-butylamino)methyl)-1-methyl-1H-imidazol-5-yl)phenoxy)-4-chlorobenzyl)-13-(4-chlorobenzyl)-10-(methoxymethyl)-7-methyl-1,6,9,12-tetraazabicyclo[11.3.1]heptadecane-2,5,8,11-tetraone], the IC50 was 0.75 nM and the Max % inhibition came out at 111.4%.

With `CNCc1ncc(-c2ccc(Oc3cc(Cl)ccc3CN3C(=O)C[C@@H](Cc4ccccc4)C(=O)N4CCC[C@@](Cc5ccc(Cl)cc5)(C4)NC(=O)[C@H](CO)NC(=O)[C@@H]3C)cc2)n1C` [Compound 150, (3R, 7S, 10S, 13R)-3-benzyl-6-(4-chloro-2-(4-(1-methyl-2-((methylamino)methyl)-1H-imidazol-5-yl)phenoxy)benzyl)-13-(4-chlorobenzyl)-10-(hydroxymethyl)-7-methyl-1,6,9, 12-tetraazabicyclo[11.3.1]heptadecane-2,5,8,11-tetraone], the IC50 stood at 0.85 nM and the Max % inhibition came to 105.4%.

Regarding `C[C@H]1C(=O)N[C@@H](CO)C(=O)N(C)[C@@]2(Cc3ccc(Cl)cc3)CCCN(C2)C(=O)[C@@H](CC(F)(F)F)CC(=O)N1Cc1c(F)cc(Cl)cc1Oc1ccc(-c2cnc(CN(C)C)n2C)cc1` [Compound 151, (3R, 7S, 10S, 13R)-6-(4-chloro-2-(4-(2-((dimethylamino)methyl)-1-methyl-1H-imidazol-5-yl)phenoxy)-6-fluorobenzyl)-13-(4-chlorobenzyl)-10-(hydroxymethyl)-7,12-dimethyl-3-(2,2,2-trifluoroethyl)-1,6,9,12-tetraazabicyclo[11.3.1]heptadecane-2,5,8,11-tetraone], the IC50 was determined as 5.69 nM and the Max % inhibition worked out at 107.5%.
